Like-named read-outs stand apart in the source and are kept apart here.
Experiments:
[1] = tested on: TDP-43 aggregates; details: 0.05 μM MT; SH-SYSY cells; cited from earlier work
[2] = compatibility of LMTM tablets with AD treatments (HPLC recovery of LMT and MT); type: physicochemical
Method: The effect of combining tablets of galantamine, memantine, donepezil or rivastigmine independently with LMTM was studied and LMTM was analysed in the resultant mixture.
One LMTM tablet (100 mg) was added to a degassed 200 ml amber volumetric flask along with one prescription dose of each of the test drugs, as indicated in the table below, and 100 ml of diluent (degassed 0.1% formic acid). Flasks were given an argon headspace and shaken on a wrist action shaker for 40 minutes at 250 oscillations/min. Samples were then diluted to the graduation mark with diluent, given an argon headspace and inverted to mix. Subsamples of the resulting solution were centrifuged at 13,000 rpm for 5 minutes to remove any undissolved excipients and the supernatant placed in an amber HPLC vial and injected into a high performance liquid chromatography (HPLC) system (Agilent 1260) to separate LMT and MT. LMT and MT peaks were identified by absorbance at 255 nm with retention times of 5.5 and 14 minutes, respectively (FIG. 11).

[3] = tested on: behavioural variant frontotemporal dementia (bvFTD); details: for ACE-R treatment effect mean (se) / FAQ treatment effect mean (se) / Fronto-temporal volume treatment effect mean (se): wrt 4 mg b.i.d. alone
Method: (1) Addenbrooke's Cognitive Examination—revised (ACE-R) and (2) Functional Activities Questionnaire [FAQ] or MRI (with Bonferroni Holme correction)
The effect of co-medication with symptomatic AD treatments which modify synaptic neurotransmission in the brain (acetylcholinesterase inhibitors or the NMDA antagonist “memantine”) was assessed. For brevity these treatments may be referred to as “AChEI/Mem” below.

[4] = 14-day and 25-day repeat-dose studies in healthy volunteers (discoloration); type: in vivo, human; details: 4 mg BID lowest dose with comparable discoloration
[5] = 100 mg LMTM + 6 mg rivastigmine
[6] = 100 mg LMTM + 12 mg galantamine
[7] = 100 mg LMTM tablet, no addition, HPLC 255 nm
[8] = 4 mg b.i.d. versus 100 mg b.i.d.
[9] = ANCOVA model, 4 mg b.i.d. as add-on to AChEI/Mem
[10] = ANCOVA model, 100 mg b.i.d. alone
[11] = ANCOVA model, 100 mg b.i.d. as add-on to AChEI/Mem
[12] = MMRM model, 4 mg b.i.d. as add-on to AChEI/Mem
[13] = MMRM model, 100 mg b.i.d. alone
[14] = MMRM model, 100 mg b.i.d. as add-on to AChEI/Mem

Methylthioninium [MT]
reduction of number of intracellular TDP-43 aggregates [1]: 50%

CN(C)c1ccc2c(c1)Sc1cc(N(C)C)ccc1N2 [LMTM, leuco-methylthioninium bis(hydromethanesulfonate)]
LMT (% difference from control*) [2, 5]: 5.64% | LMT (area) [2, 5]: 23302.4 area | MT (% difference from control*) [2, 5]: 2.14% | MT (area) [2, 5]: 320.6 area | LMT (% difference from control*) ([2]; 100 mg LMTM + 10 mg donepezil): −2.58% | LMT (area) ([2]; 100 mg LMTM + 10 mg donepezil): 22058.4 area | MT (% difference from control*) ([2]; 100 mg LMTM + 10 mg donepezil): −6.58% | MT (area) ([2]; 100 mg LMTM + 10 mg donepezil): 313.9205 area | LMT (% difference from control*) ([2]; 100 mg LMTM + 10 mg memantine): 2.19% | LMT (area) ([2]; 100 mg LMTM + 10 mg memantine): 22642.3 area | MT (% difference from control*) ([2]; 100 mg LMTM + 10 mg memantine): 1.10% | MT (area) ([2]; 100 mg LMTM + 10 mg memantine): 336 area | LMT (% difference from control*) [2, 6]: −1.37% | LMT (area) [2, 6]: 22157.4 area | MT (% difference from control*) [2, 6]: −14.90% | MT (area) [2, 6]: 332.3 area | LMT (area) [2, 7]: 22465.7 area | MT (area) [2, 7]: 390.5473 area | amount of oxidised MT after mixing ([2]; after mixing with any of the AChEIs or memantine): not increased | LMTM found in the oxidised form ([2]; following HPLC analysis): Less than 2% | decline on ACE-R and MMSE compared with historical controls ([3]; 4 mg b.i.d. and 100 mg b.i.d.): significantly less than historical controls | ADCS-CGIC, FRS, MMSE, UPDRS (safety outcome) [3, 8]: no difference | primary analysis models for ACE-R, FAQ and Whole Brain Volume [3, 8]: no difference | 12 m change in MMSE (decline), present study ([3]; 4 mg bd): 3.4 ± 0.5 | 12 month change in ACE-R (decline), present study ([3]; 4 mg bd): 10.4 ± 1.4 | 12 m change in MMSE (decline), present study ([3]; 100 mg bd): 3.0 ± 0.7 | 12 month change in ACE-R (decline), present study ([3]; 100 mg bd): 10.7 ± 1.4 | ACE-R treatment effect mean (se) [3, 9]: 6.52 (2.42) | FAQ treatment effect mean (se) [3, 9]: 2.15 ± 1.21 | Fronto-temporal volume treatment effect mean (se) [3, 9]: 356 (237) | ACE-R treatment effect mean (se) [3, 10]: 1.35 (1.71) | FAQ treatment effect mean (se) [3, 10]: −0.11 ± 0.87 | Fronto-temporal volume treatment effect mean (se) [3, 10]: −98 (173) | ACE-R treatment effect mean (se) [3, 11]: 9.69 (2.73) | FAQ treatment effect mean (se) [3, 11]: 1.90 ± 1.37 | Fronto-temporal volume treatment effect mean (se) [3, 11]: 481 (258) | ACE-R treatment effect mean (se) [3, 12]: 7.17 ± 3.25 | FAQ treatment effect mean (se) [3, 12]: 2.08 ± 1.31 | Fronto-temporal volume treatment effect mean (se) [3, 12]: 240 (291) | ACE-R treatment effect mean (se) [3, 13]: −1.12 ± 2.28 | FAQ treatment effect mean (se) [3, 13]: −0.03 ± 0.92 | Fronto-temporal volume treatment effect mean (se) [3, 13]: −4 (207) | ACE-R treatment effect mean (se) [3, 14]: 5.65 ± 3.57 | FAQ treatment effect mean (se) [3, 14]: 2.36 ± 1.45 | Fronto-temporal volume treatment effect mean (se) [3, 14]: 278 (313) | safety profile ([3]; data not shown): raised no major concerns | FAQ, MMSE and fronto-temporal volume, LMTM in combination with AD treatments versus LMTM alone ([3]; post hoc exploratory analyses): directionally supportive benefits | ACE-R, LMTM in combination with off-label AD treatments (AChEI/Mem) versus LMTM alone ([3]; post hoc exploratory analyses with AD-comedication status and severity as covariates): significant benefits | urine and stool discoloration [4]: associated with urine and stool discoloration

Source: patent US10842796B2, “Treatment of dementia” (WisTa Laboratories Ltd., priority 2016, dated 2020)
